Measured values as given in patent publication US20070174926A1, “Sperm factor oscillogenin” (priority 2000, published 2007).
“Also recorded” adds a separate entry of the source. Marks after values point to notes of the source that are not given here.

Assays:
[1] = tested on: mouse eggs; test: [Ca2+]i monitoring in fura-2 D loaded mouse eggs after agonist injection or exposure; format: cell-based; conditions: for Frequency of [Ca2+]i rises, in words: SF and adenophostin A compared with fertilization, p<0.05; for Amplitude of 1st rise / Amplitude of 3rd rise: [Ca2+]i; for Amplitude of 1st rise / Amplitude of 3rd rise / # of rises in 5 min / Duration of 1st rise / Duration of 3rd rise: mean ± SEM; for # of rises in 5 min: frequency during 5 min after return of first rise to baseline (Adenophostin A, SF) or after addition (SrCl2, thimerosal)
Method: Microinjection procedures were carried out as previously described (Wu et al., Dev. Biol. 203: 369-81 (1998)). Briefly, eggs were placed in a 50 μl microdrop of TL-Hepes supplemented with 2.5% sucrose and 20% FCS under paraffin oil and injected using manipulators (Narishige, Medical Systems Corp., Great Neck, N.Y.) mounted on a Nikon Diaphot microscope (Nikon, Inc., Garden City, N.Y.). Injection pipettes were loaded by suction from a 2-3 μl drop containing one of the following compounds: 0.5 mM fura-2 dextran (fura-2 D; […] K. Tanzawa, Sankyo Colo., Tokyo, Japan). All reagents were diluted in buffer containing 75 mM KCl and 20 mM HEPES, pH 7.0 and were delivered into the ooplasm by pneumatic pressure using a PLI-100 picoinjector (Medical Systems Corp.). […] Wu et al., 1998), and 100 nM for adenophostin A. […] Exp. Zool. 226: 311-14 (1983); and […] et al., J. Reprod. […] Swann, Biochem J. 287: 79-84 (1992); and Sato et al., Biol. Reprod. 58: 867-73 (1998)). […] Activation was started in all cases at 16 hr post hCG administration (phCG) and eggs evaluated visually 2 hr later by observing second polar body extrusion (18 hr phCG) and 5 hr post-treatment by evaluation of pronuclear formation. After the activation procedure and the assigned incubation period (1, 2, 4 or 8 hr), eggs were collected in 5 μl Dulbecco's phosphate buffered solution (DPBS)/polyvinylpyrrolidone (3 mg/ml, PVP) and stored at -80° C. […] Ethanol activation was carried out by exposing eggs to a 7% ethanol solution in TL-Hepes plus 3 mg/ml bovine serum albumin (BSA) for 5 min at 37° C. After the treatment, eggs were washed several times in TL-Hepes, and cultured for 8 hr (24 hr-phCG). […] Biol. 166: 729-39 (1994)) was accomplished by incubating eggs with 5 μM ionomycin for 5 min in Ca^2+ free-DPBS plus 3 mg/ml BSA. Eggs were then washed in TL-Hepes/1 mg/ml BSA, placed in DMAP/KSOM (2 mM) for 4 hr and cultured for 4 hr after carefuilly washing them free of DMAP. Eggs activated with SrCl2 were incubated for 2 or 4 hr in a Ca^2+-free M-16-like medium supplemented with 10 mM SrCl2. The treated eggs were then washed in TL-Hepes supplemented with 5% FCS and cultured for 2, 4 or 6 hr, depending on the experiment. […] Fluorescence Recordings and [Ca^2+]i Determinations Monitoring of [Ca^2+]i levels using fura-2 D loaded eggs was carried out as previously described (Wu et al., 1998). UV illumination was provided by a 75 watt xenon arc lamp, and 340 and 380 nm excitation wavelengths were utilized. The intensity of the UV light was attenuated 32-fold with neutral density filters, and a photomultiplier tube quantified the emitted light after passing through a 500 nm barrier filter. The fluorescence signal was averaged for the whole egg. A modified Phoscan 3.0 software program run on a 486 IBM-compatible system controlled the rotation of the filter wheel and shutter apparatus to alternate wavelengths. Free [Ca^2+]i was determined from the 340 nm/380 nm ratio of fluorescence. Rmin and Rmax were calculated using […] fura-2 D in Ca^2+-free DPBS supplemented with 2 mM EDTA (Rmin) or 2 mM CaCl2 (Rmax) and with 60% sucrose to correct for intracellular viscosity (Grynkiewicz et al., J. Biol. Chem. 260: 3440-50 (1985); and Poenie, Cell Calcium 11: 85-91 (1990)). The same solutions were also used alone for background subtractions. Ca^2+ measurements carried out in the presence of extracellular SrCl2 are presented as fluorescence ratios of the 340 nm/380 nm excitation wavelengths. Calculations of the [Ca^2+]i concentration was in this case not performed, since fura-2 has also some affinity for Sr^2+. The presence of intracellular Sr^2+ therefore interferes and prevents obtaining […] and/or Sr2+ intracellular concentrations (Hajnoczky et al., EMBO J., 16: 3533-43 (1997)). Eggs were measured individually in 35 μl drops of TL-Hepes medium placed on a glass coverslip on the bottom of a plastic culture dish under paraffin oil. […]

[2] = tested on: IP3R-1; test: Western blot quantification of IP3R-1 immunoreactivity in mouse eggs; format: cell-based; conditions: for IP3R-1 down-regulation (degradation): activation started 16 hr phCG, band intensity relative to MII eggs
Source text: (§1) Several commonly used parthenogenetic agents were used during the course of these studies, including ethanol and ionomycin, which induce a single [Ca^2+]i rise (Cuthbertson, J. Exp. Zool. 226: 311-14 (1983); and Shiina et al., J. Reprod. Fert 97: 143-50 (1993)), and others such as adenophostin A, SF, thimerosal, and SrCl2 that evoke [Ca^2+]i oscillations (Kline et al., Dev. Biol. 149: 80-9 (1992); Swann, Biochem J. 287: 79-84 (1992); and Sato et al., Biol. Reprod. 58: 867-73 (1998)). The activating compounds were either injected into eggs (e.g., adenophostin A and SF, see microinjection procedures for details) or added to the eggs' culture media (e.g., thimerosal, SrCl2). Activation was started in all cases at 16 hr post hCG administration (phCG) and eggs evaluated visually 2 hr later by observing second polar body extrusion (18 hr phCG) and 5 hr post-treatment by evaluation of pronuclear formation. After the activation procedure and the assigned incubation period (1, 2, 4 or 8 hr), eggs were collected in 5 μl Dulbecco's phosphate buffered solution (DPBS)/polyvinylpyrrolidone (3 mg/ml, PVP) and stored at −80° C.
(§2) Ethanol activation was carried out by exposing eggs to a 7% ethanol solution in TL-Hepes plus 3 mg/ml bovine serum albumin (BSA) for 5 min at 37° C. After the treatment, eggs were washed several times in TL-Hepes, and cultured for 8 hr (24 hr-phCG). Activation with ionomycin and 6-dimethylaminopurine (DMAP), a kinase inhibitor (Susko-Parrish et al., Dev. Biol. 166: 729-39 (1994)) was accomplished by incubating eggs with 5 μM ionomycin for 5 min in Ca^2+ free-DPBS plus 3 mg/ml BSA. Eggs were then washed in TL-Hepes/1 mg/ml BSA, placed in DMAP/KSOM (2 mM) for 4 hr and cultured for 4 hr after carefuilly washing them free of DMAP. Eggs activated with SrCl2 were incubated for 2 or 4 hr in a Ca^2+-free M-16-like medium supplemented with 10 mM SrCl2. The treated eggs were then washed in TL-Hepes supplemented with 5% FCS and cultured for 2, 4 or 6 hr, depending on the experiment. For thimerosal activation, eggs were exposed to freshly made solutions of 200 μM thimerosal in KSOM for 30 min. Thimerosal-treated eggs were washed free of the reagent using TL-Hepes supplemented with 5% FCS and incubated for 30 min, 1.5, 3.5 or 7.5 hr.
Lactacystin (100 μM; Calbiochem, La Jolla, Calif.), a proteasome inhibitor (Mellgren, J. Biol. Chem. 272: 29899-903 (1997); and Fenteany et al., J. Biol. Chem. 273: 8545-48 (1998)), was used to determine if the proteasome was involved in down-regulation of the IP3R-1 by SF. Eggs were incubated in the inhibitor for 30 min. prior to injections, and injections of SF were carried out in the presence of the inhibitor. Eggs were then cultured in a new drop of KSOM freshly supplemented with lactacystin for 2 hr.
Equal volumes of crude lysates from 15 or 20 mouse eggs and double strength sample buffer (Laemmli, Nature 227: 680-5 (1970)) were combined as previously described (He et al., Biol. Reprod. 57: 1245-55 (1997)). Samples were boiled for 3 min and loaded into a 4% SDS-polyacrylamide gels. The separated proteins were transferred onto nitrocellulose membranes (Micron Separation; Westboro, Mass.) using a Mini Trans Blot Cell (Bio-Rad; Hercules, Calif.) for 2 hr at 4° C. The membranes were first washed in PBS and 0.05% Tween (PBS-T) and then blocked in 6% nonfat dry milk in PBS-T for 1 hr. […]

[3] = tested on: IP3R; conditions: full IP3R agonist; cited from earlier work
[4] = tested on: mouse eggs; test: Parthenogenetic activation of mouse eggs (second polar body extrusion, pronuclear formation); format: cell-based; conditions: for Egg activation: result in words
Source text: as §1
as §2, with “For thimerosal activation, eggs were exposed to freshly made solutions of 200 μM thimerosal in KSOM for 30 min. Thimerosal-treated eggs were washed free of the reagent using TL-Hepes supplemented with 5% FCS and incubated for 30 min, 1.5, 3.5 or 7.5 hr.” left out

SMILES	Frequency of [Ca2+]i rises, in words [1]	Amplitude of 1st rise [1]	Amplitude of 3rd rise [1]	# of rises in 5 min [1]	Duration of 1st rise [1]	Duration of 3rd rise [1]	IP3R-1 down-regulation (degradation) [2]	Potency relative to IP3 [3]	Egg activation [4]	Effect on SF-induced degradation of IP3R-1 ([2]; 100 μM inhibitor, 30 min preincubation, 2 hr after SF injection)	Cell cycle progression assessed by extrusion of the polar body in SF-injected eggs ([4]; eggs pretreated and incubated with inhibitor, not shown)
Nc1ncnc2c1ncn2[C@@H]1O[C@H](CO)[C@@H](O[C@H]2O[C@H](CO)[C@@H](OP(=O)(O)O)[C@H](OP(=O)(O)O)[C@H]2O)[C@H]1OP(=O)(O)O [Adenophostin A, adenophostin A]	higher frequency	620 ± 30^a, b nM	530 ± 100^a nM	3.9 ± 1.5^a*,*	260 ± 65^a sec	70 ± 22^a sec	significant down-regulation; also recorded: near total down-regulation	approximately 100 fold	–	–	–
[Cl-].[Cl-].[Sr+2] [SrCl2]	lower frequency	–	–	1 ± 0.0^b	740 ± 290^b sec	360 ± 70^b sec	failed to induce any changes	–	high rates of egg activation	–	–
C[CH2][Hg][S]c1ccccc1C(=O)[O-].[Na+] [Thimerosal, thimerosal]	low frequency	330 ± 30^b nM	640 ± 90^a nM	1 ± 0.4^b	180 ± 44^a sec	70 ± 16^a sec	rapid and sustained down-regulation	–	–	–	–
CCO [ethanol]	–	–	–	–	–	–	does not induce down regulation of IP3R-1	–	high rates of activation	–	–
CC(=O)N[C@@H](CSC(=O)[C@]1([C@@H](O)C(C)C)NC(=O)[C@H](C)[C@@H]1O)C(=O)O [lactacystin]	–	–	–	–	–	–	–	–	–	markedly inhibited	clearly delayed
